According to PubChem BioAssay AID330 (DTP/NCI, 2004):
Several values for one entry are separate records, joined by “and”; a condition that tells them apart may be missing. Equal entries are not always repeated. Inconclusive results and toxic doses are left out.

Test system: P388 leukemia ip, CD2F1 mice, survival T/C
Assay: NCI In Vivo Anticancer Drug Screen. Data for tumor model P388 Leukemia (intraperitoneal) in CD2F1 (CDF1) mice
Conditions: endpoint: median survival time, higher = longer survival
Method in brief: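 Mice carrying the transplanted tumor received test compound or vehicle. Survival was recorded in each group, and the value is the treated-group measurement divided by that of the vehicle-treated control group.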

[1] = dose: 50.0 mg/kg/injection, schedule: Q01DX009 (ip), vehicle: Klucel (hydroxypropylcellulose) (HPC)
[2] = dose: 100.0 mg/kg/injection, schedule: Q01DX009 (ip), vehicle: Klucel (hydroxypropylcellulose) (HPC)
[3] = dose: 200.0 mg/kg/injection, schedule: Q01DX009 (ip), vehicle: Klucel (hydroxypropylcellulose) (HPC)
[4] = dose: 50.0 mg/kg/injection, schedule: Q01DX009 (ip), vehicle: saline
[5] = dose: 100.0 mg/kg/injection, schedule: Q01DX009 (ip), vehicle: saline
[6] = dose: 200.0 mg/kg/injection, schedule: Q01DX009 (ip), vehicle: saline
[7] = dose: 100.0 mg/kg/injection, schedule: Q01DX009 (ip), vehicle: saline with Tween-80
[8] = dose: 200.0 mg/kg/injection, schedule: Q01DX009 (ip), vehicle: saline with Tween-80
[9] = dose: 12.5 mg/kg/injection, schedule: Q01DX009 (ip), vehicle: saline with Tween-80
[10] = dose: 25.0 mg/kg/injection, schedule: Q01DX009 (ip), vehicle: saline with Tween-80
[11] = dose: 50.0 mg/kg/injection, schedule: Q01DX009 (ip), vehicle: saline with Tween-80
[12] = dose: 50.0 mg/kg/injection, schedule: Q01DX005 (ip), vehicle: Klucel (hydroxypropylcellulose) (HPC)
[13] = dose: 100.0 mg/kg/injection, schedule: Q01DX005 (ip), vehicle: Klucel (hydroxypropylcellulose) (HPC)
[14] = dose: 200.0 mg/kg/injection, schedule: Q01DX005 (ip), vehicle: Klucel (hydroxypropylcellulose) (HPC)
[15] = dose: 50.0 mg/kg/injection, schedule: Q01DX005 (ip), vehicle: saline with Tween-80
[16] = dose: 100.0 mg/kg/injection, schedule: Q01DX005 (ip), vehicle: saline with Tween-80
[17] = dose: 200.0 mg/kg/injection, schedule: Q01DX005 (ip), vehicle: saline with Tween-80
[18] = dose: 60.0 mg/kg/injection, schedule: Q01DX005 (ip), vehicle: saline with Tween-80
[19] = dose: 120.0 mg/kg/injection, schedule: Q01DX005 (ip), vehicle: saline with Tween-80

`COc1ccc(S(=O)(=O)NCCSSCCNS(=O)(=O)c2ccc(OC)cc2)cc1` was tested, and the T/C [1] was 91 % of control, the T/C [2] was 93 % of control and the T/C [3] was 94 % of control.
`CC(C)=CC1C(C(=O)OC23C=CC(CC2C)C3)C1(C)C` (centres undefined) was tested, and the T/C [4] was 104 % of control, the T/C [5] was 98 % of control and the T/C [6] was 102 % of control.
`Nc1ncnc2c1ccn2Cc1c(Cl)cccc1Cl` was tested, and the T/C (dose: 50.0 mg/kg/injection, schedule: Q01DX005 (ip), vehicle: distilled water + alcohol) was 101 % of control, the T/C (dose: 100.0 mg/kg/injection, schedule: Q01DX005 (ip), vehicle: distilled water + alcohol) was 101 % of control and the T/C (dose: 200.0 mg/kg/injection, schedule: Q01DX005 (ip), vehicle: distilled water + alcohol) was 98 % of control.
With `COc1cc(OC)c(C2c3cc4c(cc3OC(C)(O)C2C)OCO4)c(OC)c1` (centres undefined) the T/C (dose: 100.0 mg/kg/injection, schedule: Q04DX002 (ip), vehicle: saline with Tween-80) was 94 % of control, the T/C (dose: 200.0 mg/kg/injection, schedule: Q04DX002 (ip), vehicle: saline with Tween-80) was 89 % of control and the T/C (dose: 400.0 mg/kg/injection, schedule: Q04DX002 (ip), vehicle: saline with Tween-80) was 102 % of control.
`Cn1c([N+](=O)[O-])cnc1/C=[N+](\[O-])CCO` was tested, and the T/C [4] was 100 % of control, the T/C [5] was 100 % of control and the T/C [6] was 102 % of control.
For `CCOC(=O)CC[Si](CC)(CC)CC`, the T/C [4] was 104 % of control, the T/C [5] was 93 % of control and the T/C [6] was 90 % of control.
In the case of `OC1(c2ccccc2)CN(Cc2ccccc2)CC(c2ccccc2)O1` (centres undefined), the T/C [7] is reported as 98 % of control, the T/C [8] is reported as 100 % of control and the T/C (dose: 400.0 mg/kg/injection, schedule: Q01DX009 (ip), vehicle: saline with Tween-80) is reported as 106 % of control.
For `CCSc1nc2ccc(NC(=O)/C=C/C(=O)O)cc2s1`, the T/C [1] was 103 % of control, the T/C [2] was 90 % of control and the T/C [3] was 95 % of control.
In the case of `CCCCCOc1ccc(C(=O)/C(Br)=C/C(=O)O)cc1`, the T/C [9] is reported as 104 % of control, the T/C [10] is reported as 109 % of control and the T/C [11] is reported as 123 % of control.
In the case of `Cc1ccc(S(=O)(=O)C(CCC(=O)c2ccccc2)(CCC(=O)c2ccccc2)[N+](=O)[O-])cc1`, the T/C [12] is reported as 91 % of control, the T/C [13] is reported as 92 % of control and the T/C [14] is reported as 87 % of control.
In the case of `Nc1nc2[nH]c(=S)[nH]c2c(=O)[nH]1`, the T/C [15] is reported as 92 % of control, the T/C [16] is reported as 92 % of control and the T/C [17] is reported as 95 % of control.
`CCOC(=O)NCCCCC([NH-])C(=O)O.CCOC(=O)NCCCCC([NH-])C(=O)O.[Cu+2]` (centres undefined) was tested, and the T/C [4] was 101 % of control and the T/C [5] was 92 % of control.
For `C[C@@H]1CCC[C@@H](NC(=O)N(CCCl)N=O)C1`, the T/C (dose: 18.75 mg/kg/injection, schedule: Q01DX009 (ip), vehicle: Klucel (hydroxypropylcellulose) (HPC)) was 176 % of control, the T/C (dose: 37.5 mg/kg/injection, schedule: Q01DX009 (ip), vehicle: Klucel (hydroxypropylcellulose) (HPC)) was 193 % of control and the T/C (dose: 75.0 mg/kg/injection, schedule: Q01DX009 (ip), vehicle: Klucel (hydroxypropylcellulose) (HPC)) was 249 % of control.
`Cn1cc(Cl)n(C)c(=O)c1=O` was tested, and the T/C (dose: 6.25 mg/kg/injection, schedule: Q01DX001 (ip), vehicle: saline with Tween-80) was 104 % of control, the T/C (dose: 12.5 mg/kg/injection, schedule: Q01DX001 (ip), vehicle: saline with Tween-80) was 104 % of control and the T/C (dose: 25.0 mg/kg/injection, schedule: Q01DX001 (ip), vehicle: saline with Tween-80) was 118 % of control.
With `NNC(=O)C(=O)N/N=C(\CC1(O)C(=O)Nc2ccccc21)c1ccccc1O` (centres undefined) the T/C [15] was 104 % of control, the T/C [16] was 98 % of control and the T/C [17] was 103 % of control.
For `NC1=NCCCN1`, the T/C (dose: 3.0 mg/kg/injection, schedule: Q01DX009 (ip), vehicle: saline) was 95 % of control, the T/C (dose: 6.0 mg/kg/injection, schedule: Q01DX009 (ip), vehicle: saline) was 104 % of control and the T/C (dose: 12.0 mg/kg/injection, schedule: Q01DX009 (ip), vehicle: saline) was 90 % of control.
`ONc1ccc2c(c1)C1C(C3C2C2(Cl)C(Cl)=C(Cl)C3(Cl)C2(Cl)Cl)C2(Cl)C(Cl)=C(Cl)C1(Cl)C2(Cl)Cl` (centres undefined) was tested, and the T/C [4] was 96 % of control, the T/C [5] was 99 % of control and the T/C [6] was 92 % of control.
In the case of `CC(NNC(=S)N1CCC(c2ccccc2)CC1)c1cc2ccccc2cn1` (centres undefined), the T/C (dose: 6.25 mg/kg/injection, schedule: Q01DX005 (ip), vehicle: saline with Tween-80) is reported as 97 % of control, the T/C (dose: 12.5 mg/kg/injection, schedule: Q01DX005 (ip), vehicle: saline with Tween-80) is reported as 103 % of control and the T/C (dose: 25.0 mg/kg/injection, schedule: Q01DX005 (ip), vehicle: saline with Tween-80) is reported as 111 % of control.
In the case of `CCOC(=O)C1OC1(C)c1ccccc1` (centres undefined), the T/C [11] is reported as 102 % of control, the T/C [7] is reported as 100 % of control and the T/C [8] is reported as 107 % of control.
For `OC1COc2ccccc2OCCOCCOc2ccccc2OC1`, the T/C (dose: 15.0 mg/kg/injection, schedule: Q01DX005 (ip), vehicle: saline with Tween-80) was 100 % of control, the T/C (dose: 30.0 mg/kg/injection, schedule: Q01DX005 (ip), vehicle: saline with Tween-80) was 94 % of control and the T/C [18] was 95 % of control and 96 % of control.
With `CC(C)Cc1cc(-c2cc(CC(C)C)[nH]n2)n[nH]1` the T/C [18] was 106 % of control, the T/C [19] was 95 % of control and the T/C (dose: 240.0 mg/kg/injection, schedule: Q01DX005 (ip), vehicle: saline with Tween-80) was 100 % of control.
For `CCC1C2Cc3ccc(O)cc3C1(CC)CCN2Cc1ccoc1` (centres undefined), the T/C [11] was 96 % of control, the T/C [7] was 88 % of control and the T/C [8] was 91 % of control.
`CCCCN(CCCC)C(=O)C(O)C(=O)N(CCCC)CCCC` was tested, and the T/C (dose: 25.0 mg/kg/injection, schedule: Q01DX005 (ip), vehicle: Klucel (hydroxypropylcellulose) (HPC)) was 104 % of control, the T/C [12] was 104 % of control and the T/C [13] was 98 % of control. The T/C [14] was 109 % of control.
For `Cn1c(N)nc2c([nH]c(=O)n2C2OC(CO)C(O)C2O)c1=O` (centres undefined), the T/C (dose: 60.0 mg/kg/injection, schedule: Q01DX005 (ip), vehicle: Klucel (hydroxypropylcellulose) (HPC)) was 105 % of control, the T/C (dose: 120.0 mg/kg/injection, schedule: Q01DX005 (ip), vehicle: Klucel (hydroxypropylcellulose) (HPC)) was 111 % of control and the T/C (dose: 240.0 mg/kg/injection, schedule: Q01DX005 (ip), vehicle: Klucel (hydroxypropylcellulose) (HPC)) was 111 % of control.
`Cc1nccnc1NN=O` was tested, and the T/C (dose: 3.12 mg/kg/injection, schedule: Q01DX009 (ip), vehicle: water) was 101 % of control, the T/C (dose: 6.25 mg/kg/injection, schedule: Q01DX009 (ip), vehicle: water) was 104 % of control and the T/C (dose: 12.5 mg/kg/injection, schedule: Q01DX009 (ip), vehicle: water) was 111 % of control and 113 % of control. For the same compound, the T/C (dose: 100.0 mg/kg/injection, schedule: Q01DX009 (ip), vehicle: water) was 87 % of control.
With `C#CC(=O)O` the T/C (dose: 6.25 mg/kg/injection, schedule: Q01DX009 (ip), vehicle: saline with Tween-80) was 111 % of control, the T/C [9] was 95 % of control and the T/C [10] was 92 % of control.
With `CCCN(CCC)CC(=O)NC1c2ccccc2Oc2ccccc21` the T/C [12] was 101 % of control, the T/C [13] was 101 % of control and the T/C [14] was 90 % of control.
In the case of `CCOC(=O)C1=NN2c3ccccc3OCC2C1` (centres undefined), the T/C (dose: 50.0 mg/kg/injection, schedule: Q04DX003 (ip), vehicle: suspension in saline) is reported as 99 % of control, the T/C (dose: 100.0 mg/kg/injection, schedule: Q04DX003 (ip), vehicle: suspension in saline) is reported as 101 % of control and the T/C (dose: 200.0 mg/kg/injection, schedule: Q04DX003 (ip), vehicle: suspension in saline) is reported as 100 % of control.
For `O=c1c2ccccc2sc2c([N+](=O)[O-])ccc(NCCC3CCCN4CCCCC34)c12` (centres undefined), the T/C (dose: 44.5 mg/kg/injection, schedule: Q01DX005 (ip), vehicle: saline with Tween-80) was 95 % of control, the T/C (dose: 89.0 mg/kg/injection, schedule: Q01DX005 (ip), vehicle: saline with Tween-80) was 94 % of control and the T/C (dose: 178.0 mg/kg/injection, schedule: Q01DX005 (ip), vehicle: saline with Tween-80) was 96 % of control. For the same compound, the T/C (dose: 356.0 mg/kg/injection, schedule: Q01DX005 (ip), vehicle: saline with Tween-80) was 100 % of control.
With `CC1=Nc2nc(=N)nc3cccc(n23)N1` the T/C [18] was 95 % of control and the T/C [19] was 104 % of control.
With `CC/C(=N/NS(=O)(=O)c1ccc(C)cc1)c1ccc(Cl)cc1` the T/C [4] was 97 % of control, the T/C [5] was 92 % of control and the T/C [6] was 99 % of control.
